# According to PubChem BioAssay AID1963431 (Molecular Pharmacology Branch, DTP, NCI, 2024):
# pIC50: −log10 of the molar value.
# Tested on: Rh18 complex spheroid viability, percent test/control
# Assay: Anticancer human tumor Rh18 cell line growth inhibition [Asc];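 also: spheroids exposed to compound for 7 days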;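 as to viability, T/C: 100% = DMSO vehicle control wells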
# Details: for pIC50: curve of first compound; for viability, T/C: stronger effect = lower value
# In short: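 Spheroid model: tumor line + HUVEC + hMSC. Single agents and combinations; top conc. at/near clinical Cmax (10 microM if undetermined), half-log dilutions. DMSO stocks at 800-fold test concentration.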
# [1] = second compound 0.1 µM, first compound 0.00316 µM
# [2] = second compound 0.1 µM, first compound 0.01 µM
# [3] = second compound 0.1 µM, first compound 0.0316 µM
# [4] = second compound 0.1 µM, first compound 0.1 µM
# [5] = second compound 0.316 µM, first compound 0.00316 µM
# [6] = second compound 0.316 µM, first compound 0.01 µM
# [7] = second compound 0.316 µM, first compound 0.0316 µM
# [8] = second compound 0.316 µM, first compound 0.1 µM
# [9] = second compound 1 µM, first compound 0.00316 µM
# [10] = second compound 1 µM, first compound 0.01 µM
# [11] = second compound 1 µM, first compound 0.0316 µM
# [12] = second compound 1 µM, first compound 0.1 µM
# [13] = second compound 3.16 µM, first compound 0.00316 µM
# [14] = second compound 3.16 µM, first compound 0.01 µM
# [15] = second compound 3.16 µM, first compound 0.0316 µM
# [16] = second compound 3.16 µM, first compound 0.1 µM
# [17] = second compound 10 µM, first compound 0.00316 µM
# [18] = second compound 10 µM, first compound 0.01 µM
# [19] = second compound 10 µM, first compound 0.0316 µM
# [20] = second compound 10 µM, first compound 0.1 µM
smiles,measurement,setting,value
NC(=O)C(=Cn1cnc(-c2cc(C(F)(F)F)cc(C(F)(F)F)c2)n1)c1cncnc1 + Cc1c(S(C)(=O)=O)c(-c2cc(F)cc(N3CCN(c4ccc(NS(=O)(=O)c5ccc(NC(CCN6CCC(C(=O)OCCCP(=O)(O)O)CC6)CSc6ccccc6)c(S(=O)(=O)C(F)(F)F)c5)cc4)CC3)c2)c(-c2ccc(Cl)cc2)n1C(C)C,pIC50,second compound 0.1 µM,> 9.02
same,pIC50,second compound 0.316 µM,> 9.02
same,pIC50,second compound 1 µM,> 9.02
same,pIC50,second compound 3.16 µM,> 9.02
same,pIC50,second compound 10 µM,> 9.02
same,"viability, T/C","second compound 0.1 µM, first compound 0.000949 µM",13.5%
same,"viability, T/C","second compound 0.1 µM, first compound 0.003 µM",16.7%
same,"viability, T/C","second compound 0.1 µM, first compound 0.00949 µM",18.6%
same,"viability, T/C","second compound 0.1 µM, first compound 0.03 µM",13.7%
same,"viability, T/C","second compound 0.1 µM, first compound 0.0949 µM",9.41%
same,"viability, T/C","second compound 0.1 µM, first compound 0.3 µM",5.69%
same,"viability, T/C","second compound 0.316 µM, first compound 0.000949 µM",15.2%
same,"viability, T/C","second compound 0.316 µM, first compound 0.003 µM",13.6%
same,"viability, T/C","second compound 0.316 µM, first compound 0.00949 µM",10.8%
same,"viability, T/C","second compound 0.316 µM, first compound 0.03 µM",9.84%
same,"viability, T/C","second compound 0.316 µM, first compound 0.0949 µM",9.11%
same,"viability, T/C","second compound 0.316 µM, first compound 0.3 µM",3.67%
same,"viability, T/C","second compound 1 µM, first compound 0.000949 µM",10.2%
same,"viability, T/C","second compound 1 µM, first compound 0.003 µM",9.49%
same,"viability, T/C","second compound 1 µM, first compound 0.00949 µM",8.9%
same,"viability, T/C","second compound 1 µM, first compound 0.03 µM",7.48%
same,"viability, T/C","second compound 1 µM, first compound 0.0949 µM",7.03%
same,"viability, T/C","second compound 1 µM, first compound 0.3 µM",2.37%
same,"viability, T/C","second compound 3.16 µM, first compound 0.000949 µM",7.63%
same,"viability, T/C","second compound 3.16 µM, first compound 0.003 µM",8.78%
same,"viability, T/C","second compound 3.16 µM, first compound 0.00949 µM",7.9%
same,"viability, T/C","second compound 3.16 µM, first compound 0.03 µM",5.11%
same,"viability, T/C","second compound 3.16 µM, first compound 0.0949 µM",4.79%
same,"viability, T/C","second compound 3.16 µM, first compound 0.3 µM",2.11%
same,"viability, T/C","second compound 10 µM, first compound 0.000949 µM",4.44%
same,"viability, T/C","second compound 10 µM, first compound 0.003 µM",6.25%
same,"viability, T/C","second compound 10 µM, first compound 0.00949 µM",6.34%
same,"viability, T/C","second compound 10 µM, first compound 0.03 µM",5.72%
same,"viability, T/C","second compound 10 µM, first compound 0.0949 µM",3.51%
same,"viability, T/C","second compound 10 µM, first compound 0.3 µM",1.84%
NC1CCC(NC2CC2c2ccccc2)CC1 (stereo not given) + Cc1c(S(C)(=O)=O)c(-c2cc(F)cc(N3CCN(c4ccc(NS(=O)(=O)c5ccc(NC(CCN6CCC(C(=O)OCCCP(=O)(O)O)CC6)CSc6ccccc6)c(S(=O)(=O)C(F)(F)F)c5)cc4)CC3)c2)c(-c2ccc(Cl)cc2)n1C(C)C,pIC50,second compound 0.1 µM,> 9.50
same,pIC50,second compound 0.316 µM,> 9.50
same,pIC50,second compound 1 µM,> 9.50
same,pIC50,second compound 3.16 µM,> 9.50
same,pIC50,second compound 10 µM,> 9.50
same,"viability, T/C","second compound 0.1 µM, first compound 0.000316 µM",13.1%
same,"viability, T/C","second compound 0.1 µM, first compound 0.001 µM",13.2%
same,"viability, T/C",[1],10.9%
same,"viability, T/C",[2],10.2%
same,"viability, T/C",[3],12.5%
same,"viability, T/C",[4],11.2%
same,"viability, T/C","second compound 0.316 µM, first compound 0.000316 µM",10.4%
same,"viability, T/C","second compound 0.316 µM, first compound 0.001 µM",9.84%
same,"viability, T/C",[5],8.02%
same,"viability, T/C",[6],8.28%
same,"viability, T/C",[7],8.54%
same,"viability, T/C",[8],8.22%
same,"viability, T/C","second compound 1 µM, first compound 0.000316 µM",6.65%
same,"viability, T/C","second compound 1 µM, first compound 0.001 µM",6.65%
same,"viability, T/C",[9],6.88%
same,"viability, T/C",[10],4.85%
same,"viability, T/C",[11],5.16%
same,"viability, T/C",[12],5.77%
same,"viability, T/C","second compound 3.16 µM, first compound 0.000316 µM",4.21%
same,"viability, T/C","second compound 3.16 µM, first compound 0.001 µM",3.65%
same,"viability, T/C",[13],3.75%
same,"viability, T/C",[14],3.61%
same,"viability, T/C",[15],3.49%
same,"viability, T/C",[16],4.43%
same,"viability, T/C","second compound 10 µM, first compound 0.000316 µM",2.72%
same,"viability, T/C","second compound 10 µM, first compound 0.001 µM",3.65%
same,"viability, T/C",[17],3%
same,"viability, T/C",[18],2.12%
same,"viability, T/C",[19],2.21%
same,"viability, T/C",[20],2.07%
O=C(c1ccc(F)c(F)c1Nc1ccc(I)cc1F)N1CC(O)([C@@H]2CCCCN2)C1 + Cc1c(S(C)(=O)=O)c(-c2cc(F)cc(N3CCN(c4ccc(NS(=O)(=O)c5ccc(NC(CCN6CCC(C(=O)OCCCP(=O)(O)O)CC6)CSc6ccccc6)c(S(=O)(=O)C(F)(F)F)c5)cc4)CC3)c2)c(-c2ccc(Cl)cc2)n1C(C)C,pIC50,second compound 0.1 µM,> 8.50
same,pIC50,second compound 0.316 µM,> 8.50
same,pIC50,second compound 1 µM,> 8.50
same,pIC50,second compound 3.16 µM,> 8.50
same,pIC50,second compound 10 µM,> 8.50
same,"viability, T/C",[1],14.8%
same,"viability, T/C",[2],13.6%
same,"viability, T/C",[3],17.2%
same,"viability, T/C",[4],11%
same,"viability, T/C","second compound 0.1 µM, first compound 0.316 µM",6.6%
same,"viability, T/C","second compound 0.1 µM, first compound 1 µM",1.12%
same,"viability, T/C",[5],9.21%
same,"viability, T/C",[6],11.2%
same,"viability, T/C",[7],11%
same,"viability, T/C",[8],8.03%
same,"viability, T/C","second compound 0.316 µM, first compound 0.316 µM",4.04%
same,"viability, T/C","second compound 0.316 µM, first compound 1 µM",0.96%
same,"viability, T/C",[9],8.77%
same,"viability, T/C",[10],14.6%
same,"viability, T/C",[11],6.89%
same,"viability, T/C",[12],7.25%
same,"viability, T/C","second compound 1 µM, first compound 0.316 µM",3.29%
same,"viability, T/C","second compound 1 µM, first compound 1 µM",0.52%
same,"viability, T/C",[13],7.36%
same,"viability, T/C",[14],7.93%
same,"viability, T/C",[15],7.81%
same,"viability, T/C",[16],5.28%
same,"viability, T/C","second compound 3.16 µM, first compound 0.316 µM",1.59%
same,"viability, T/C","second compound 3.16 µM, first compound 1 µM",0.38%
same,"viability, T/C",[17],5.3%
same,"viability, T/C",[18],4.85%
same,"viability, T/C",[19],4.39%
same,"viability, T/C",[20],2.53%
same,"viability, T/C","second compound 10 µM, first compound 0.316 µM",1.08%
same,"viability, T/C","second compound 10 µM, first compound 1 µM",0.6%
